Measured values taken from patent US10463671B2, “Combination therapy for treating cancer” (Epizyme, Inc., priority 2013, dated 2019).

Key:
DOHH2 cells = assay: Medium throughput combination proliferation assay (CellTiter-Glo, Chou-Talalay CI / potency shift); conditions: DOHH2 EZH2 wild-type cells
[1] = system: glucocorticoid signaling genes in SU-DHL4 cells; assay: RT2 Glucocorticoid Signaling PCR array; format: cell-based; design: IL10 Ct Values / TNF Ct Values: unit not given here; conditions: SUDHL4 cell line, 4 days
[2] = system: glucocorticoid signaling genes in DOHH2 cells; assay: RT2 Glucocorticoid Signaling PCR array; format: cell-based; conditions: vs DMSO; DOHH2, 4 days
WSU-DLCL2 cells = assay: Medium throughput combination proliferation assay (CellTiter-Glo, Chou-Talalay CI / potency shift)

Compound: CCN(c1cc(-c2ccc(CN3CCOCC3)cc2)cc(C(=O)NCc2c(C)cc(C)[nH]c2=O)c1C)C1CCOCC1 [Compound 44]
- anti-proliferative effect as a single agent (DOHH2 cells): no anti-proliferative effect
- ACTB Ct Values [1]: 14.247
- ADARB1 Ct Values [1]: 28.562
- AFF1 Ct Values [1]: 25.936
- AK2 Ct Values [1]: 20.311
- AMPD3 Ct Values [1]: 25.553
- ANGPTL4 Ct Values [1]: 29.825
- ANXA4 Ct Values [1]: 28.717
- ARID5B Ct Values [1]: 25.129
- ASPH Ct Values [1]: 23.348
- ATF4 Ct Values [1]: 18.778
- B2M Ct Values [1]: 18.971
- BCL6 Ct Values [1]: 21.075
- CEBPA Ct Values [1]: 31.206
- CEBPB Ct Values [1]: 23.911
- CREB1 Ct Values [1]: 22.973
- CREB3 Ct Values [1]: 24.566
- CREB3L4 Ct Values [1]: 25.089
- CYB561 Ct Values [1]: 36.737
- DDIT4 Ct Values [1]: 21.455
- DUSP1 Ct Values [1]: 26.325
- EDN1 Ct Values [1]: 33.297
- EHD3 Ct Values [1]: 25.766
- FKBP5 Ct Values [1]: 20.494
- FOSL2 Ct Values [1]: 31.757
- GAPDH Ct Values [1]: 15.835
- GDPD1 Ct Values [1]: 28.134
- GHRHR Ct Values [1]: 37.623
- GLUL Ct Values [1]: 35.795
- GOT1 Ct Values [1]: 22.607
- H6PD Ct Values [1]: 25.743
- HAS2 Ct Values [1]: 35.628
- HNRPLL Ct Values [1]: 22.977
- HPRT1 Ct Values [1]: 21.358
- IL6R Ct Values [1]: 33.589
- IL10 Ct Values [1]: 33.099
- KLF9 Ct Values [1]: 27.456
- KLF13 Ct Values [1]: 22.649
- MT2A Ct Values [1]: 24.175
- NFKBIA Ct Values [1]: 22.909
- NR3C1 Ct Values [1]: 22.803
- PDCD7 Ct Values [1]: 24.858
- PDP1 Ct Values [1]: 26.112
- PER1 Ct Values [1]: 24.926
- PER2 Ct Values [1]: 24.371
- PIK3R1 Ct Values [1]: 23.440
- PLEKHF1 Ct Values [1]: 27.868
- POU2F1 Ct Values [1]: 24.224
- POU2F2 Ct Values [1]: 21.920
- RASA3 Ct Values [1]: 23.207
- RGS2 Ct Values [1]: 25.145
- RHOB Ct Values [1]: 32.584
- RPLP0 Ct Values [1]: 15.469
- SGK1 Ct Values [1]: 25.808
- SLC10A6 Ct Values [1]: 34.857
- SLC19A2 Ct Values [1]: 27.465
- SLC22A5 Ct Values [1]: 28.544
- SNTA1 Ct Values [1]: 24.797
- SPHK1 Ct Values [1]: 30.619
- SPSB1 Ct Values [1]: 26.495
- STAT5A Ct Values [1]: 25.174
- STAT5B Ct Values [1]: 22.153
- TBL1XR1 Ct Values [1]: 20.805
- TNF Ct Values [1]: 29.337
- TNFAIP3 Ct Values [1]: 28.521
- TSC22D3 Ct Values [1]: 21.432
- USP2 Ct Values [1]: 21.342
- USP54 Ct Values [1]: 26.952
- VDR Ct Values [1]: 28.330
- VLDLR Ct Values [1]: 28.792
- ZFP36 Ct Values [1]: 24.706
- ZHX3 Ct Values [1]: 24.719
- ZNF281 Ct Values [1]: 23.881
- AK2 ΔΔCT ([1]; compared to DMSO): −0.570
- CREB3 ΔΔCT ([1]; compared to DMSO): −0.490
- FKBP5 ΔΔCT ([1]; compared to DMSO): 0.008
- GOT1 ΔΔCT ([1]; compared to DMSO): 0.065
- TSC22D3 ΔΔCT ([1]; compared to DMSO): −0.002
- ACTB ΔCT (B2M) ([1]; normalized to B2M): −4.472
- ADARB1 ΔCT (B2M) ([1]; normalized to B2M): 8.878
- AFF1 ΔCT (B2M) ([1]; normalized to B2M): 7.118
- AK2 ΔCT (B2M) ([1]; normalized to B2M): 1.846
- AMPD3 ΔCT (B2M) ([1]; normalized to B2M): 6.024
- ANGPTL4 ΔCT (B2M) ([1]; normalized to B2M): 10.570
- ANXA4 ΔCT (B2M) ([1]; normalized to B2M): 8.217
- AQP1 ΔCT (B2M) ([1]; normalized to B2M): 14.226
- ARID5B ΔCT (B2M) ([1]; normalized to B2M): 5.748
- ASPH ΔCT (B2M) ([1]; normalized to B2M): 3.985
- ATF4 ΔCT (B2M) ([1]; normalized to B2M): 0.232
- B2M ΔCT (B2M) ([1]; normalized to B2M): 0.000
- BCL6 ΔCT (B2M) ([1]; normalized to B2M): 1.878
- CEBPA ΔCT (B2M) ([1]; normalized to B2M): 10.026
- CEBPB ΔCT (B2M) ([1]; normalized to B2M): 5.188
- CREB1 ΔCT (B2M) ([1]; normalized to B2M): 4.237
- CREB3L4 ΔCT (B2M) ([1]; normalized to B2M): 5.662
- CREB3 ΔCT (B2M) ([1]; normalized to B2M): 5.665
- CYB561 ΔCT (B2M) ([1]; normalized to B2M): 14.250
- DDIT4 ΔCT (B2M) ([1]; normalized to B2M): 3.098
- DIRAS2 ΔCT (B2M) ([1]; normalized to B2M): 14.626
- DUSP1 ΔCT (B2M) ([1]; normalized to B2M): 7.998
- EDN1 ΔCT (B2M) ([1]; normalized to B2M): 13.616
- FKBP5 ΔCT (B2M) ([1]; normalized to B2M): 3.113
- FOSL2 ΔCT (B2M) ([1]; normalized to B2M): 14.606
- GAPDH ΔCT (B2M) ([1]; normalized to B2M): −2.966
- GDPD1 ΔCT (B2M) ([1]; normalized to B2M): 8.216
- GLUL ΔCT (B2M) ([1]; normalized to B2M): 15.658
- GOT1 ΔCT (B2M) ([1]; normalized to B2M): 4.103
- H6PD ΔCT (B2M) ([1]; normalized to B2M): 6.063
- HAS2 ΔCT (B2M) ([1]; normalized to B2M): 13.205
- HNRPLL ΔCT (B2M) ([1]; normalized to B2M): 3.821
- HPRT1 ΔCT (B2M) ([1]; normalized to B2M): 2.826
- IL1RN ΔCT (B2M) ([1]; normalized to B2M): 17.503
- IL6R ΔCT (B2M) ([1]; normalized to B2M): 13.239
- IL10 ΔCT (B2M) ([1]; normalized to B2M): 12.363
- KLF9 ΔCT (B2M) ([1]; normalized to B2M): 8.013
- KLF13 ΔCT (B2M) ([1]; normalized to B2M): 4.078
- MERTK ΔCT (B2M) ([1]; normalized to B2M): 15.103
- MT2A ΔCT (B2M) ([1]; normalized to B2M): 4.766
- NFKBIA ΔCT (B2M) ([1]; normalized to B2M): 4.260
- NR3C1 ΔCT (B2M) ([1]; normalized to B2M): 4.025
- PDCD7 ΔCT (B2M) ([1]; normalized to B2M): 5.357
- PDGFRB ΔCT (B2M) ([1]; normalized to B2M): 16.449
- PDP1 ΔCT (B2M) ([1]; normalized to B2M): 6.751
- PER1 ΔCT (B2M) ([1]; normalized to B2M): 6.217
- PER2 ΔCT (B2M) ([1]; normalized to B2M): 5.647
- PIK3R1 ΔCT (B2M) ([1]; normalized to B2M): 4.859
- PLEKHF1 ΔCT (B2M) ([1]; normalized to B2M): 8.928
- POU2F1 ΔCT (B2M) ([1]; normalized to B2M): 5.110
- POU2F2 ΔCT (B2M) ([1]; normalized to B2M): 3.085
- RASA3 ΔCT (B2M) ([1]; normalized to B2M): 4.228
- RGS2 ΔCT (B2M) ([1]; normalized to B2M): 5.914
- RHOB ΔCT (B2M) ([1]; normalized to B2M): 11.328
- RHOJ ΔCT (B2M) ([1]; normalized to B2M): 19.737
- RPLP0 ΔCT (B2M) ([1]; normalized to B2M): −3.490
- SESN1 ΔCT (B2M) ([1]; normalized to B2M): 6.439
- SGK1 ΔCT (B2M) ([1]; normalized to B2M): 7.757
- SLC10A6 ΔCT (B2M) ([1]; normalized to B2M): 15.580
- SLC19A2 ΔCT (B2M) ([1]; normalized to B2M): 7.877
- SLC22A5 ΔCT (B2M) ([1]; normalized to B2M): 8.969
- SNTA1 ΔCT (B2M) ([1]; normalized to B2M): 5.666
- SPHK1 ΔCT (B2M) ([1]; normalized to B2M): 10.251
- SPSB1 ΔCT (B2M) ([1]; normalized to B2M): 6.832
- STAT5A ΔCT (B2M) ([1]; normalized to B2M): 6.005
- STAT5B ΔCT (B2M) ([1]; normalized to B2M): 3.152
- TBL1XR1 ΔCT (B2M) ([1]; normalized to B2M): 2.099
- TNF ΔCT (B2M) ([1]; normalized to B2M): 10.753
- TNFAIP3 ΔCT (B2M) ([1]; normalized to B2M): 9.051
- TSC22D3 ΔCT (B2M) ([1]; normalized to B2M): 4.628
- USP2 ΔCT (B2M) ([1]; normalized to B2M): 3.364
- USP54 ΔCT (B2M) ([1]; normalized to B2M): 15.234
- VDR ΔCT (B2M) ([1]; normalized to B2M): 8.200
- VLDLR ΔCT (B2M) ([1]; normalized to B2M): 9.068
- ZFP36 ΔCT (B2M) ([1]; normalized to B2M): 6.014
- ZHX3 ΔCT (B2M) ([1]; normalized to B2M): 5.569
- ZNF281 ΔCT (B2M) ([1]; normalized to B2M): 5.057
- FKBP5 ΔΔCT [2]: −0.032
- SPSB1 ΔΔCT [2]: −0.025
- maximum reduction in Compound 44 IC50 with Prednisolone (WSU-DLCL2 cells; WSU-DLCL2 (FIG. 3A)): 24 fold
- potency enhancement of Compound 44 at biologically relevant concentration of Dexamethasone (WSU-DLCL2 cells; WSU-DLCL2, 100 nM Dexamethasone): 15 fold
- potency enhancement of Compound 44 at biologically relevant concentration of Prednisolone (WSU-DLCL2 cells; WSU-DLCL2, 1 μM Prednisolone): 7 fold
